From BigSolDB 2.1

CN1CCN(c2c(F)cc3c(=O)c(C(=O)O)cn4c3c2OCN4C)CC1
solubility (mole fraction)
Settings | 283.15 K | 288.15 K | 293.15 K | 298.15 K | 303.15 K | 308.15 K | 313.15 K | 318.15 K | 323.15 K | 328.15 K
in 1,4-dioxane | – | 0.000114 | 0.000132 | 0.000153 | 0.000188 | 0.00023 | 0.00028 | 0.000348 | 0.000427 | 0.000512
in THF | – | 0.000432 | 0.000508 | 0.000591 | 0.00068 | 0.000777 | 0.000887 | 0.001 | 0.00113 | 0.00125
in acetone | 0.000219 | 0.000266 | 0.000316 | 0.000367 | 0.000425 | 0.000488 | 0.00057 | 0.000678 | 0.000796 | –
in acetonitrile | 0.000122 | 0.000147 | 0.000172 | 0.000213 | 0.00025 | 0.000298 | 0.000345 | 0.000422 | 0.000509 | –
in ethanol | 6.66e-05 | 7.84e-05 | 9.47e-05 | 0.000117 | 0.000144 | 0.000175 | 0.000217 | 0.000264 | 0.000326 | –
in ethyl acetate | 0.000154 | 0.000172 | 0.000197 | 0.000226 | 0.000255 | 0.000288 | 0.000326 | 0.000378 | 0.000432 | –
in isopropanol | 5.13e-05 | 6.16e-05 | 7.5e-05 | 9.22e-05 | 0.000107 | 0.00013 | 0.000164 | 0.000204 | 0.000259 | –
in methanol | 0.000127 | 0.000147 | 0.000173 | 0.000204 | 0.000249 | 0.000295 | 0.000354 | 0.000435 | 0.000521 | –
in n-butanol | 8.77e-05 | 0.0001 | 0.000116 | 0.00014 | 0.000169 | 0.000204 | 0.000254 | 0.000316 | 0.000408 | –
in n-propanol | 8.29e-05 | 9.58e-05 | 0.000114 | 0.000136 | 0.000164 | 0.000202 | 0.000253 | 0.000315 | 0.000391 | –
in tert-amyl alcohol | 7.86e-05 | 9.12e-05 | 0.000107 | 0.000122 | 0.00014 | 0.00017 | 0.000202 | 0.00024 | 0.00029 | –
in toluene | 4.91e-05 | 6.13e-05 | 7.24e-05 | 8.74e-05 | 0.000102 | 0.000117 | 0.000135 | 0.000155 | 0.00018 | –
